According to US12486259B2, “FXR agonist having pyrazine structure, and preparation method and use” (JIANGSU TASLY DIYI PHARMACEUTICAL CO., LTD., priority 2020, dated 2025):

Assays:
[1] = target: T1, GST-labeled recombinant human FXR protein (Homo sapiens, UniProt Q96RI1); assay: Agonistic activity on FXR receptor (GST-FXR / SRC-1 bead assay, protein level); assay type: biochemical; conditions: for EC50: 0.4 nM FXR, 30 nM SRC-1, protein level; for FXR agonistic activity at protein level (in words): judgement on Table 1 results
T1 construct: purchased Invitroren (so in the source)
T1 sequence (Q96RI1 262-486 limits assumed): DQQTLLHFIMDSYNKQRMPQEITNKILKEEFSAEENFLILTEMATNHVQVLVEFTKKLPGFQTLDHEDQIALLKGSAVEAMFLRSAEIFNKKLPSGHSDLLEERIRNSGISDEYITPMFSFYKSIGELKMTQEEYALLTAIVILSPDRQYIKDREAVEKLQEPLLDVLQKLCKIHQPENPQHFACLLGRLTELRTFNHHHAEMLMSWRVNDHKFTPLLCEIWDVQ
T1 sequence (Q15788 676-700 partner limits assumed): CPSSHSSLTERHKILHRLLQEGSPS
Method: Experimental procedures: FXR (GST-labeled recombinant human FXR protein, manufacturer: Invitroren, Item number: PV4835) and SRC-1 (steroid receptor co-activator-1) are thawed on ice. Three solutions of ABC are prepared by a buffer solution, solution A, 0.4 n M FXR and 30 nM SRC-1; solution B, 10 ug/ml Acceptor Beads; solution C, 10 ug/ml Donor Beads. Solution A is added to the plate at 15 uL per well. It is incubated at room temperature for 1 hour. Solution B is added to the plate at 7.5 uL per well. It is incubated at room temperature for 1 hour. Solution C is added to the plate at 7.5 uL per well. It is incubated at room temperature for 1 hour. It is read from the microplate reader Envision. The data are curve fitted by using Prism 5.0 to calculate the EC50.

[2] = in vitro; conditions: human; for Papp A→B: Caco-2, Papp A-B; for recovery: Caco-2, Recovery rate A-B
Method: The bi-directional transport of target compounds from apical side (AP) to basolateral side (BL) and from BL side to AP side is studied by using human colon adenocarcinoma cell line Caco-2 monolayer model. The transport parameters, apparent permeability coefficient (Papp) and efflux ratio are calculated by quantitative analysis with high performance liquid chromatography (HPLC).

[3] = system: C57/BL6 mice fed MCD diet; assay: Pharmacodynamic test in methionine-choline deficient diet (MCD) model of non-alcoholic fatty liver disease; assay type: in vivo; conditions: MCD mice, obeticholic acid 40 mpk
Method: Animal strain: C57/BL6, Animal Grade: SPF Grade, Gender: male, Animal Age: 8 weeks old, Animals Received Date: 2018 Sep. 28, Animal Source: Shanghai Lingchang Biotechnology Co. Ltd., Animal Certificate No: SCXK (Shanghai)2013-0018 2013001836799, Mouse feeding Environment: temperature 20-26° C., humidity 40-70%, 12 hour day and night cycle.
5% Solutol HS15/Normal saline: after Solutol HS15 (polyethylene glycol 15 hydroxystearate solubilizer) is dissolved in a water bath at 37° C., 5 ml of it is dissolved in 100 ml of normal saline, thoroughly stirred for later use.
Obeticholic acid/5% Solutol HS15/Normal saline: 0.15 ml Solutol HS15 is added to accurately weighed 12 mg obeticholic acid to fully dissolve it, and 2.85 ml normal saline is added, vigorously mixed and dissolved by the ultrasound. • TM-01 Group/5% Solutol HS15/Normal saline: 2.5 ml of 6 mg/ml TM-01 suspension is taken, 2.5 ml of 5% Solutol HS15/normal saline is added, and the mixture is mixed well. • TM-02 Group/5% Solutol HS15/Normal saline: 2.5 ml of 6 mg/ml TM-02 suspension is taken, 2.5 ml of 5% Solutol HS15/normal saline is added, and the mixture is mixed well. • TM-06 Group/5% Solutol HS15/Normal saline: 2.5 ml of 6 mg/ml TM-06 suspension is taken, 2.5 ml of 5% Solutol HS15/Normal saline is added, and the mixture is mixed well. • TM-09 Group/5% Solutol HS15/Normal saline: 2.5 ml of 6 mg/ml TM-09 suspension is taken, 2.5 ml of 5% Solutol HS15/Normal saline is added, and the mixture is mixed well.
Menstruum and test compounds are administered by gavage at a dose volume of 10 ml/kg;
After reaching the animal house, 70 8-week-old C57/BL6 mice are fed adaptively and randomly divided into 7 groups according to body weight after the average body weight reaches 23 g. They are given the model feed. The first group receives the control diet MCS and the remaining groups receive the MCD diet, while each group of mice receives compound treatment as follows: • Group 1. Control Group: MCS, menstruum, administered once daily by gavage; • Group 2. Model Group: MCD, menstruum, administered once daily by gavage; • Group 3. Obeticholic acid group: MCD, 40 mpk obeticholic acid, administered once daily by gavage; • Group 4. TM-01 Group: MCD, 30 mpk TM-01, administered once daily by gavage; • Group 5. TM-02 Group: MCD, 30 mpk TM-02, administered once daily by gavage; • Group 6. TM-06 Group: MCD, 30 mpk TM-06, administered once daily by gavage; • Group 7. TM-09 Group: MCD, 30 mpk TM-09, administered once daily by gavage; 2.4 Experimental Methods
Body weight and food intake are measured weekly during the experiment. Twenty-one days after administration, tail tips are bled with microcapillaries for AST, ALT measurements. Twenty-eight days after administration, mice are terminated, hearts are bled, and liver tissues are collected and weighed. One portion is snap frozen with liquid nitrogen for subsequent analysis and the other portion are fixed for pathological analysis.
Mouse blood is centrifuged at 5000 rpm for 10 minutes and supernatants are collected for determination of TG (triglycerides), TC (total cholesterol), HDL (high density lipoprotein), LDL (low density lipoprotein), AST (aspartate aminotransferase) and ALT (alanine aminotransferase).
AST and ALT after administration for three and four weeks are determined according to the instructions of kit. The blood lipid index 4 weeks after administration is sent to Adicon Medical Laboratory Co. Ltd. for detection.
The livers are removed from −80° C., homogenized in PBS (phosphate buffered saline), extracted with chloroform methanol organic phase, and subjected to TC and TG assays using the kit, normalized for protein content.
Four weeks after administration, the mice are anesthetized. The heart is bled, the liver is isolated and weighed. The right lobe is snapfrozen with liquid nitrogen and stored at −80° C. for liver lipid analysis. The left lobe is isolated and fixed in 10% formalin for subsequent HE and Sirius Red staining. […]

[4] = blood, 3 weeks, TM 30 mpk, gavage
[5] = blood, 4 weeks, TM 30 mpk, gavage
[6] = blood, after 4 weeks, TM 30 mpk
[7] = liver, after 4 weeks, TM 30 mpk

O=C(O)c1cccc(C2CC(O)(c3cnc(OCc4c(-c5c(Cl)cccc5Cl)noc4-c4ccccc4)cn3)C2)c1 (centres unmarked) [TM-07, 3-(3-(5-(5-phenyl-3-(2,6-dichlorophenyl)isoxazole-4-ylmethoxy)-2-pyrazine)-1-hydroxycyclobutane) benzoic acid]
EC50 [1]: 4.21 µM | FXR agonistic activity at protein level (in words) [1]: poor activity

OC1(c2cnc(OCc3c(-c4c(Cl)cccc4Cl)noc3C3CC3)cn2)CC(c2cccc(Br)c2)C1 (centres unmarked) [TM-03, 3-(3-bromophenyl)-1-(5-((5-cyclopropyl-3-(2,6-dichlorophenyl)isoxazol-4-yl)methoxy)pyrazine-2-yl) cyclobutanol]
EC50 [1]: 0.24 µM

Cc1cc(C(=O)O)cc(C2CC(O)(c3cnc(OCc4c(-c5c(Cl)cccc5Cl)noc4-c4ccccc4)cn3)C2)c1 (centres unmarked) [TM-10, 3-(3-(5-((3-(2,6-dichlorophenyl)-5-phenylisoxazol-4-yl)methoxy)pyrazine-2-yl)-3-hydroxycyclobutyl)-5-methyl benzoic acid]
EC50 [1]: 5.66 µM | FXR agonistic activity at protein level (in words) [1]: poor activity

COCCc1ccc(OCC(O)CNC(C)C)cc1 (centres unmarked) [Metoprolol, reference compound]
Papp A→B [2]: 18.1 ×10⁻⁶ cm/s | Papp A→B ([2]; Average): 18.1 ×10⁻⁶ cm/s | Papp A→B ([2]; Sample-01): 19.5 ×10⁻⁶ cm/s | Papp A→B ([2]; Sample-02): 16.8 ×10⁻⁶ cm/s | recovery ([2]; Average): 93.8% | recovery ([2]; Sample-01): 93.2% | recovery ([2]; Sample-02): 94.3%

CC(C)(C)NCC(O)COc1cccc2c1CC(O)C(O)C2 (centres unmarked) [Nadolol, reference compound]
Papp A→B [2]: 0.07 ×10⁻⁶ cm/s | Papp A→B ([2]; Average): 0.07 ×10⁻⁶ cm/s | Papp A→B ([2]; Sample-01): 0.07 ×10⁻⁶ cm/s | Papp A→B ([2]; Sample-02): 0.06 ×10⁻⁶ cm/s | recovery ([2]; Average): 89.8% | recovery ([2]; Sample-01): 91.5% | recovery ([2]; Sample-02): 88%

O=C(O)c1cccc(N2CC(O)(c3ccc(OCc4c(-c5c(Cl)cccc5Cl)noc4C4CC4)cc3Cl)C2)c1 [Compound M2, reference compound]
EC50 [1]: 1.8 µM | FXR agonistic activity at protein level (in words) [1]: less active than the compounds of the present invention

OC1(c2cnc(OCc3c(-c4c(Cl)cccc4Cl)noc3C3CC3)cn2)CC(c2cccc(Sc3ccccc3)c2)C1 (centres unmarked) [TM-05, 1-(5-((5-cyclopropyl-3-(2,6-dichlorophenyl)isoxazol-4-yl)methoxy)pyrazine-2-yl)-3-(3-(phenylthio)phenyl) cyclobutanol]
EC50 [1]: 5.01 µM | FXR agonistic activity at protein level (in words) [1]: poor activity

CS(=O)(=O)c1cccc(C2CC(O)(c3cnc(OCc4c(-c5c(Cl)cccc5Cl)noc4C4CC4)cn3)C2)c1 (centres unmarked) [TM-04, 1-(5-((5-cyclopropyl-3-(2,6-dichlorophenyl)isoxazol-4-yl)methoxy)pyrazine-2-yl)-3-(3-(methylsulfonyl)phenyl) cyclobutanol]
EC50 [1]: 1.35 µM

CC[C@H]1[C@@H](O)[C@@H]2[C@H](CC[C@]3(C)[C@@H]([C@H](C)CCC(=O)O)CC[C@@H]23)[C@@]2(C)CC[C@@H](O)C[C@@H]12 [obeticholic acid, reference compound]
Weight, 0 week ([3]; 0 week, TM compounds 30 mpk, once daily by gavage): 23.72 ± 0.46 g | Food intake, 1 week ([3]; 1 week, TM 30 mpk, gavage): 2.992 ± 0.396 g | Weight, 1 week ([3]; 1 week, TM compounds 30 mpk, once daily by gavage): 21.28 ± 0.42 g | Food intake, 2 weeks ([3]; 2 weeks, TM 30 mpk, gavage): 2.945 ± 0.315 g | Weight, 2 weeks ([3]; 2 weeks, TM compounds 30 mpk, once daily by gavage): 18.97 ± 0.41 g | Food intake, 3 weeks ([3]; 3 weeks, TM 30 mpk, gavage): 2.092 ± 0.320 g | Weight, 3 weeks ([3]; 3 weeks, TM compounds 30 mpk, once daily by gavage): 17.60 ± 0.35 g | Food intake, 4 weeks ([3]; 4 weeks, TM 30 mpk, gavage): 2.073 ± 0.031 g | Weight, 4 week ([3]; 4 weeks, TM compounds 30 mpk, once daily by gavage): 15.72 ± 0.35 g | liver weight ([3]; after 4 weeks, TM 30 mpk): 0.90 ± 0.03 g | liver/body weight ([3]; after 4 weeks, TM 30 mpk): 5.76 ± 0.26 % | ALT, 3 weeks [3, 4]: 323.00 ± 37.79 U/L | AST, 3 weeks [3, 4]: 197.24 ± 21.54 U/L | ALT, 4 weeks [3, 5]: 93.37 ± 10.36 U/L | AST, 4 weeks [3, 5]: 126.59 ± 20.25 U/L | HDL (blood lipid) [3, 6]: 0.55 ± 0.01 mmol/L | LDL (blood lipid) [3, 6]: 2.80 ± 0.03 mmol/L | TC (blood lipid) [3, 6]: 0.86 ± 0.04 mmol/L | TG (blood lipid) [3, 6]: 0.56 ± 0.02 mmol/L | HE score ([3]; liver pathology score (Table 12 criteria), 4 weeks, TM 30 mpk): 2.6 | Sirius red staining area ([3]; liver, 4 weeks, TM 30 mpk): 0.344 ± 0.057% | liver TC [3, 7]: 35.7 ± 3.38 µmol/g protein | liver TG [3, 7]: 298 ± 36.2 µmol/g protein
